Reference: patent US20220281930A1, “COMPOSITIONS AND METHODS FOR THE TREATMENT OF PATHOLOGICAL PAIN AND ITCH” (DUKE UNIVERSITY, priority 2019, published 2022)

Tests used:
[1] = system: KCC2; test: Composite score from primary and secondary screening; assay type: cell-based, mouse; conditions: Natural Compounds
Experimental: The primary screen encompassed three levels of LUC measurements. The first level of screening yielded a total of 137 compounds with cut-off RLU>125% LUC activity. These 137 compounds were subject to second round of screening, which was carried out in duplicate independent assays to yield the top 103 compounds sorted for highest RLU. The 103 compounds were then subjected to a third round of screening carried out in duplicate independent assays to yield the top 40 compounds which were again ranked. The best 22 of these 40 compounds (ranked for highest RLU activity) were subjected to secondary screening: Cultured neurons were treated with the 22 compounds; RT-qPCR and Clomeleon imaging methodologies (Yeo et al., 2009, J Neurosci 29:14652-14662) were used to determine effects of compounds on KCC2 mRNA expression and [Cl—]i, respectively. Each compound was ranked based on composite scores from primary and secondary screening.
To identify KCC2 gene expression enhancing compounds, cultured primary cortical neurons were cultured from KCC2-luciferase(LUC)-knockin (KCC2-LUCki) mice (Liedtke et al., 2013, Small 9:1066-1075; Yeo et al., 2013, Proc Natl Acad Sci USA 110:4315-4320) and used LUC metrics as readout for activity of the proximal KCC2 promoter (2.5 kB (Yeo et al., 2009, J Neurosci 29:14652-14662)), which drives LUC in this mouse transgenic line. A Z′ factor of 0.94 was obtained. This strategy will not select for long-range enhancers of KCC2 gene expression that act outside the 2.5 kB core KCC2 promoter. 1057 compounds, contained in two NCI libraries (FIG. 1), related to inhibition of growth of malignantly transformed cells were screened. Iterative screening followed by measurements of KCC2 mRNA (RT-qPCR) and intracellular chloride ([Cl—]i), using clomeleon chloride indicator protein (Kuner and Augustine, 2000, Neuron 27:447-459; Yeo et al., 2009, J Neurosci 29:14652-14662), led to decreasing numbers of confirmed and re-confirmed hits, and 4 “winner” compounds were selected (FIG. 1 and Table 3).

[2] = system: DNFB chronic contact dermatitis model; test: DNFB chronic contact dermatitis scratching behavior; assay type: in vivo, mouse; conditions: daily i.p. 30 mg/kg
Experimental: To assess scratching behavior as a behavioral correlate of itch, mice were shaved at the dorsal neck where topical application of 0.5% DNFB was applied (day 1). […] On day 12, mice were allowed to acclimate to a Plexiglas chamber for at least 30 mins before performing itch behavior test. Scratching behavior was recorded by a Panasonic video camera for a 30-min observation period. Hind limb scratching behavior directed toward the shaved area at the nape of neck was observed. One scratch is defined as a lifting of the hind limb toward the injection site and then a replacing of the limb back to the floor, regardless of how many scratching strokes take place between those two movements. Behavioral analysis was conducted by observers blinded to treatment procedure. DNFB-induced scratching behavior was recorded on day 12 for 1 h. […] Based on these findings, KP's anti-pruritic effects were assessed because inhibitory transmission in the SCDH plays an important role in chronic pruritus (Akiyama et al., 2015, Pain 156:1240-1246.; Bourane et al., 2015, Science 350:550-554; Braz et al., 2017, Prog Brain Res 231:87-105; Braz et al., 2014, J Clin Invest 124:3612-3616; Koch et al., 2018, Annual review of physiology 80:189-217; Mishra and Hoon, 2015, Handbook of experimental pharmacology 226:151-162).

[3] = system: δ-cat; test: Nuclear transfer of transfected human δ-cat in N2a cells; assay type: cell-based, mouse
Text: Plasmid containing human δ-catenin (CTNND2, NM_001288717) open reading frame was obtained from GeneCopeia (EX-A4285-M02) and cloned into pCMV-ENTER vector (Origene PS100001). Site-directed mutagenesis using Phusion DNA Polymerase enzyme (Thermofisher F549L) in conjunction with complementary primers bearing the specific mutation were used to generate the S276A […] mutation S276A. PCR was followed by Dpn1 enzyme digestion to remove parental plasmid DNA. All constructs were verified by sequencing. pCS-CMV-tdTomato plasmid was obtained from Addgene (cat. #30530).
To investigate the relevance of δ-cat residue S276, N2a neural cells were studied because these cells transfect at higher efficiency than primary cortical neurons. In our cultures, N2a cells expressed neuronal ßIII-tubulin in elongated processes as determined by immune-labeling as an indicator of their neuronal differentiation. […] This increase in nuclear transfer was very similar to the trafficking we recorded in primary cortical neurons, thus validating the cell line. […] Of note, there was no increase of nuclear transfer of δ-cat(S276A) upon KP treatment (FIG. 8C and FIG. 8D).

[4] = biological target: GSK3ß (Homo sapiens, UniProt P49841); conditions: literature; cited from earlier work
Chain of GSK3ß (P49841 whole entry): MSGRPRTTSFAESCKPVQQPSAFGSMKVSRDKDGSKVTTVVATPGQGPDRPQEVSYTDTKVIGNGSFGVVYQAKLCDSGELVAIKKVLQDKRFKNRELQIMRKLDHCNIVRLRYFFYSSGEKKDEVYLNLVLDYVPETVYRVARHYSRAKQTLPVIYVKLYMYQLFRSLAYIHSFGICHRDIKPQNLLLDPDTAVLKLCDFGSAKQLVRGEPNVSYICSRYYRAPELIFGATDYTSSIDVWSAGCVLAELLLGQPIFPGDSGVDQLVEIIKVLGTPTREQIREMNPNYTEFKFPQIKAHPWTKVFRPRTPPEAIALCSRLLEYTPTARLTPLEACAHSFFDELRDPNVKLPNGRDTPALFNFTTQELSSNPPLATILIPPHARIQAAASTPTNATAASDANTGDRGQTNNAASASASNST

Q: What does the source list for O=C1Cc2c([nH]c3ccc(Br)cc23)-c2ccccc2N1 [kenpaullone, 9-bromo-7,12-dihydro-indolo [3,2-d] [1]benzazepin-6(5H)-one]?
A: Top 2 hits [1]: winner; Total Score ([1]; sum of the three scores): 6; scratching behavior of sensitized sites [2]: significantly reduced robust scratching behavior; nuclear transfer of δ-cat ([3]; cells transfected with δ-cat(S276A), KP treatment): had no effect; nuclear transfer of δ-cat ([3]; cells transfected with δ-cat(WT), KP vs vehicle): significantly enhances; potency of GSK3ß inhibition among known targets [4]: highest potency
